By solubility (kinetic) is commonly meant solubility judged after dilution from a stock solution rather than from solid. As a reminder, the half-life is the time needed for the level to fall by half in the phase considered. Read a low half-life as rapid decline. As usually defined, the EC50 is the concentration at which the effect is half-maximal. As usually defined, the Emax is the size of the effect at its maximum, as opposed to the concentration needed. By Papp A→B is commonly meant how fast a substance crosses the layer from the apical side. A higher Papp A→B goes with ready permeation. For orientation: Papp B→A means the apparent permeability from the basolateral to the apical side of a cell layer. As usually defined, the IC50 is the concentration at which inhibition is half-maximal. Low readings indicate inhibition by little substance, high ones a need for much substance. A word on the efflux ratio: it is a quotient of directional permeabilities that is used to spot active efflux.

The nature of data set [1]: High-throughput kinetic solubility (µSOL), pH 7.4. The format is physicochemical. To be noted: aqueous solution pH 7.4, pH 7.4, aqueous buffer, kinetic from dmso stock; read-out: HT Kinetic Solubility, Solubility. As for the experimental part:
High-Throughput kinetic solubility test assay
Pion’s patented µSOL assay for kinetic solubility determination was used. In this assay, the classical saturation shake- flask solub ility method was adapted to a 96-well microtiter plate format and a co-solvent method with n- propanol as the […] was utilized. Test compounds were prepared in 10 mM DMSO solutions (45 µ L), and diluted with the co-solve nt to a final drug conce ntration of […]
Samples are incubated at room temperature for 6 hrs t o achieve equilibrium. The samples were then filtered to remove any precipitate formed. The concentrat ion of the compound in the filtrate was measured by UV ab sorbance. […]
used for quantitation of unknown drug concent ration in filtrate. Spectroscopically pure 1- Propanol was used as acosolvent to suppress precipitation in the reference

A short description of data set [2]: High-throughput PAMPA (GIT), pH 7.4. In kind it is in vitro ADME. To be noted: read-out: HT PAMPA Permeability. The text has this: In Vitro Physicochemical and Drug Metabolism Studies:
High-Throughput PAMPA assay
The stirring double- sin k PAMPA method patented by pION Inc. (Billeri ca, MA) was employed to determine the permeability of compounds via PAMPA passive diffusion. The PAMPA lipid membrane consisted of an artificial membrane of a proprietary lipid mixture and dodecane (Pion Inc.), optimized to predict gastrointestinal tract (GIT) passive diffusion permeability, was immobilized on a plastic matrix of a 96 well “donor” filter plate placed above a 96 well “a cceptor” plate. A pH 7.4 solution was used in both donor and acceptor wells. The test articles, stocked in 10 mM DMSO solutions, were diluted to 0.05 mM in aqueous buffer (pH 7.4) , and the concentration of DMSO was 0.5% in the final solution. During the 30-min permeation period at room temperature, the test samples in the donor compartment were stirred using the Gutbox te chnology (Pion Inc.) to reduce the unstirred water layer. The test article concentrations in the donor and acceptor compartments were measured using an UV plate reader (Nano Quant, Infinite 200 […]
PRO, Tecan Inc., Männedorf, Switzerland). Permeability calculations were performed using Pion Inc. software and were expressed in units of 10-6 cm/s. […]

Data set [3] is described as follows: Microsomal metabolic stability, mouse. In kind it is in vitro ADME. To be noted: pH 7.4; mouse liver microsomes.
The nature of data set [4]: Microsomal metabolic stability, rat. The format is in vitro ADME. To be noted: pH 7.4; rat liver microsomes. In general terms: Liver microsomes are vesicles of endoplasmic reticulum, rich in cytochrome P450 enzymes.
A short description of data set [5]: Microsomal metabolic stability, human. The format is in vitro ADME. The settings on record: pH 7.4; human liver microsomes.
Data set [6] can be described thus: Human plasma protein binding (rapid equilibrium dialysis, Cyprotex). In kind it is in vitro ADME. To be noted: human, plasma, human plasma. In general terms: Equilibrium dialysis compares concentrations on both sides of a semipermeable membrane.
The next data set deals with T1, hERG channel (Homo sapiens, UniProt Q12809).
T1 construct: host or cells: U2OS cells (ATCC)
Description: hERG FluxOR-based thallium flux assay. The format is cell-based. The settings on record: In Vitro Toxicity; for Emax: human, U2OS cells transduced with hERG-BacMam virus. Background: The hERG channel carries a current that helps repolarise heart muscle cells.

The nature of another data set: in vitro. The settings on record: human, Caco-2.
The nature of data set [7]: Human hepatocyte cytotoxicity (CellTiter-Glo, 72 hr). To be noted: both, human, cryopreserved human hepatocytes.
Another data set has as its system human hepatocytes. Described as above. To be noted: Homo sapiens, Hepatocyte, read-out: Human Hepatocytes EC50.
A further data set has as its target IDH1 WT (Homo sapiens, UniProt O75874). As to the kind of experiment: Wild type IDH1 enzyme assay, diaphorase/resazurin coupled. To be noted: for EC50: IDH1 WT EC50, Biochemical; for Emax: read-out: IDH1 WT % EMax.
A further data set has as its target T2, IDH2 WT (Homo sapiens, UniProt P48735).
T2 sequence (P48735 40-452): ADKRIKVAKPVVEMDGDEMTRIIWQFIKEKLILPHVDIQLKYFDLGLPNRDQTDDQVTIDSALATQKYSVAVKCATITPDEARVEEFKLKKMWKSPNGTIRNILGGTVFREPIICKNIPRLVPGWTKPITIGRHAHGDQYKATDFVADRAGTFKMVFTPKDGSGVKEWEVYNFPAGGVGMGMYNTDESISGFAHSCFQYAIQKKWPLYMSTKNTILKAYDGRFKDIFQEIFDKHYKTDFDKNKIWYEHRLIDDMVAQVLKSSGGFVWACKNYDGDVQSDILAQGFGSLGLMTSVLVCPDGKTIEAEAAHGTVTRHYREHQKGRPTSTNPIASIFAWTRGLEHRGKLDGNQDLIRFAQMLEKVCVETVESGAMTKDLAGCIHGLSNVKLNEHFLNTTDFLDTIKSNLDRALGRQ
As to the kind of experiment: Wild type IDH2 enzyme assay, diaphorase/resazurin coupled. The settings on record: for Emax: read-out: IDH2 % EMax.

The target in another data set is T3, R172Q mIDH2 (Homo sapiens, UniProt P48735, R172Q).
T3 sequence (P48735 40-452 R172Q): T2 sequence (P48735 40-452) with R133Q
Description: mIDH2-R172Q enzyme assay (Reaction Biology), diaphorase/resazurin coupled. The settings on record: for Emax: read-out: IDH2 R172Q % EMax.

Data set [8] has as its target P-glycoprotein (P-gp, MDR1, ABCB1) (Homo sapiens, UniProt P08183). Description: Bidirectional MDCK-MDR1 permeability assay (Cyprotex). The settings on record: dog, MDCK-MDR1.
Setting [9] is: read-out: Human Plasma Protein Binding % Unbound.

Positions count from the first letter of the chain named. In brackets after ≈: the same amount, converted by molar mass. Like-named read-outs stand apart in the source and are kept apart here. Bounds are passed on as bounds.

Chain of IDH1 WT (O75874 whole entry): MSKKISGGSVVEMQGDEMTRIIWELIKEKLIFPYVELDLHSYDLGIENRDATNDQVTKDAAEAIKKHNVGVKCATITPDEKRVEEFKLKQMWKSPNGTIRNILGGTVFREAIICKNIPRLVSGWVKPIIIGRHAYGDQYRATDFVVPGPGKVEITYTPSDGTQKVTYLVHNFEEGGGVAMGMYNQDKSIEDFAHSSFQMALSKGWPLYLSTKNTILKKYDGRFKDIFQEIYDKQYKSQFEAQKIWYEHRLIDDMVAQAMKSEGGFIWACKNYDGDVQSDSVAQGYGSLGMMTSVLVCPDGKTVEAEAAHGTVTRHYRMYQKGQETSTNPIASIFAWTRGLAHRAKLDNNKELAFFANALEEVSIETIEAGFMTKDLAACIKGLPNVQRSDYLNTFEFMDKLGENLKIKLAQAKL
T1 sequence (Q12809 whole entry): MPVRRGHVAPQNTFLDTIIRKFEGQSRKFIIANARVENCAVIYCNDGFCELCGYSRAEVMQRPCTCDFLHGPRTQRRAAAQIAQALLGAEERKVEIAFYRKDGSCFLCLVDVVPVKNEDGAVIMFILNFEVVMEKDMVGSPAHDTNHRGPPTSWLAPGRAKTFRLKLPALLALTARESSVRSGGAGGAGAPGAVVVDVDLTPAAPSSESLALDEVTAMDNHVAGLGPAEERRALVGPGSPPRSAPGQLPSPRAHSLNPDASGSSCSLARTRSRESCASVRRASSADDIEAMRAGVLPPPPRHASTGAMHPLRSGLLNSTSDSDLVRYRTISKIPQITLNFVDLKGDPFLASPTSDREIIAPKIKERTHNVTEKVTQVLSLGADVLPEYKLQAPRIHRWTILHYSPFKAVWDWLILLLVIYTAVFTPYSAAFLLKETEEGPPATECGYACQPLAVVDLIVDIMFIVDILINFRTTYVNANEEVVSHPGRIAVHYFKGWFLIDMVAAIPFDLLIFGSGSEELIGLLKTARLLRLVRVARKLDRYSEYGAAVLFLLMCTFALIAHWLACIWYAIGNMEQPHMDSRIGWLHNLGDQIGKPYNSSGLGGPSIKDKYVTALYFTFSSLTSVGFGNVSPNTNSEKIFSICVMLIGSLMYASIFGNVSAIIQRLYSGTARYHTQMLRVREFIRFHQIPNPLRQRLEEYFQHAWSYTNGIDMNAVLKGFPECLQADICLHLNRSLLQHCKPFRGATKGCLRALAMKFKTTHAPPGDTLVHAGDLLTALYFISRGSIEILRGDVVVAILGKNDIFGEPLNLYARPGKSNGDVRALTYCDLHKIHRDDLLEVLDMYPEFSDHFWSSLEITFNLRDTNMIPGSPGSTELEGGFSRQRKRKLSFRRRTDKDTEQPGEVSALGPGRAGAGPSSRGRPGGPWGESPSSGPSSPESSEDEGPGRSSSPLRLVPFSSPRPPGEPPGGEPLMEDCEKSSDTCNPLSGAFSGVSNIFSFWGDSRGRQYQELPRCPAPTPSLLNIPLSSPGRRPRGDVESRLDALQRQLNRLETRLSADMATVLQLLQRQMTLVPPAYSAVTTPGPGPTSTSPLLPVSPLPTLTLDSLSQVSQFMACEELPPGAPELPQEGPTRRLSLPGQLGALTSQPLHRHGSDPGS
Chain of P-glycoprotein (P-gp, MDR1, ABCB1) (P08183 whole entry): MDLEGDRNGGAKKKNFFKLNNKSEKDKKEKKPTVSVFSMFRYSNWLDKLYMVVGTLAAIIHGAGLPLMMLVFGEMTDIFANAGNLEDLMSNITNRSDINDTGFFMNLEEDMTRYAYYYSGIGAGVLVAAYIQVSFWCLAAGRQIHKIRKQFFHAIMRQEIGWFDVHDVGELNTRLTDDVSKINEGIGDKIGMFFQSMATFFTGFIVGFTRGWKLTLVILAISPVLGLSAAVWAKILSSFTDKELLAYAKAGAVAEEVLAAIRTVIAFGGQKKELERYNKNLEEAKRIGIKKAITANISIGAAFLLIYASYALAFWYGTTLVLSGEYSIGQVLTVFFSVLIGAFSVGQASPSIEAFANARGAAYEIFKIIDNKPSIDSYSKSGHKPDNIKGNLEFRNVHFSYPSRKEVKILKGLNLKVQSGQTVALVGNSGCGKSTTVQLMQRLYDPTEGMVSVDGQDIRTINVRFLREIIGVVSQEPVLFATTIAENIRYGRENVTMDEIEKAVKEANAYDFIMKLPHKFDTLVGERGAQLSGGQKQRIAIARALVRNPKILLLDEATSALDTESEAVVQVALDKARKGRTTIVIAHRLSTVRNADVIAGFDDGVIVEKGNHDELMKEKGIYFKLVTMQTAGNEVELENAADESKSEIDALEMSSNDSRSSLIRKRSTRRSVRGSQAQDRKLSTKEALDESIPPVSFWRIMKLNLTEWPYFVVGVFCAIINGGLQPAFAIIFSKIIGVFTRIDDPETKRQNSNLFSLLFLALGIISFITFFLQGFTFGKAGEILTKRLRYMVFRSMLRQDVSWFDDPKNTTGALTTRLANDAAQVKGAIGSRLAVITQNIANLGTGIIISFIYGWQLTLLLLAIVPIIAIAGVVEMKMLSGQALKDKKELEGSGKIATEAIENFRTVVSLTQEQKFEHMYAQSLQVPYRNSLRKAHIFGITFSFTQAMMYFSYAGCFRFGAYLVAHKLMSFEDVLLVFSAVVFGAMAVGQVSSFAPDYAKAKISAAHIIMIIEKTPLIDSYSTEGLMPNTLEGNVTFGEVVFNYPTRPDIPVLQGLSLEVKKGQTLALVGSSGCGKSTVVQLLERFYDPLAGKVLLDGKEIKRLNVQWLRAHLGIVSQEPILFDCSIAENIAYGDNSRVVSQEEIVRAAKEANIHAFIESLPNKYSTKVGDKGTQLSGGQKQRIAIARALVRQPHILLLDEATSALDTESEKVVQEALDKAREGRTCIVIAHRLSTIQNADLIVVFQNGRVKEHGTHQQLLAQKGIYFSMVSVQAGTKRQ

In the case of `O=C(Nc1cccc(C(F)(F)F)c1)Nc1cc(S(=O)(=O)NC2CC2)ccc1-c1ccsc1` [AGI-6780], in data set [1], the kinetic solubility at 6 h worked out at 0.374 µM (≈ 0.18 µg/mL). Further, the Papp at 30 min, 0.05 mM in data set [2] stood at 523 ×10⁻⁶ cm/s. Moreover, the half-life at 1 µM in [3] was found to be 4.6 min; in data set [4] it was 4.5 min; in data set [5], 3.1 min. Also, the fraction unbound at 4 h, 5 µM in data set [6] (read-out: Human Plasma Protein Binding % Bound (converted)) is 0.001; in [6] (setting [9]), 0.00083. Also, the EC50 was 25.1 µM at hERG channel, 21.9 µM in the data set on human hepatocytes and greater than 30 µM at IDH1 WT. For the same molecule, the Emax on hERG channel was found to be 99.8%; at IDH1 WT it was 8.1%; at IDH2 WT, 85.2%; on R172Q mIDH2, 74.4%. Further, the Papp A→B at 2 h, 10 µM in the data set “in vitro” came to 0.85 ×10⁻⁶ cm/s. The same molecule registered a Papp B→A at 2 h, 10 µM in “in vitro” of 12.5 ×10⁻⁶ cm/s. Moreover, in data set [7], the Emax at 72 h amounted to 108%.

For the molecule `CC(C)Nc1nc(Nc2ccccc2)nc(-c2ccccc2)n1` [IDH2-C100], the solubility (kinetic) at 6 h in data set [1] was 0.458 µM (≈ 0.14 µg/mL). Further, the Papp at 30 min, 0.05 mM in data set [2] was 482 ×10⁻⁶ cm/s. In addition, the half-life at 1 µM was 13.5 min in data set [3], 26.7 min in data set [4] and 20.6 min in data set [5]. The fraction unbound at 4 h, 5 µM in data set [6] (setting [9]) was found to be 0.00011. Further, the EC50 at hERG channel is greater than 30 µM; in the data set with human hepatocytes, greater than 30 µM; at IDH1 WT it was greater than 30 µM; at IDH2 WT, 6.59 µM; at R172Q mIDH2, 0.343 µM. The Emax at hERG channel was 7.2%; on IDH1 WT, 11.8%; at IDH2 WT, 84.7%; at R172Q mIDH2, 72.2%. Besides, in the data set “in vitro”, the Papp A→B at 2 h, 10 µM is 0.57 ×10⁻⁶ cm/s. Further, the Papp B→A at 2 h, 10 µM in the data set “in vitro” is 2.34 ×10⁻⁶ cm/s. In [7], this molecule came in with an Emax at 72 h of 31.5%. The molecule also registered an IC50 against R172Q mIDH2 of roughly 1 µM.

With `CN(C)C(=O)C(CCN1CCC(O)(c2ccc(Cl)cc2)CC1)(c1ccccc1)c1ccccc1` [loperamide], the efflux ratio at 2 h, 10 µM in [8] was roughly 350.

The values are drawn from PMC5630632, “Assessing inhibitors of mutant isocitrate dehydrogenase using a suite of pre-clinical discovery assays” (Scientific Reports, 2017).
